Assay results from PubChem BioAssay AID248 (DTP/NCI, 2004).
Values joined by “and” are separate entries in the source; they are usually repeats but may differ in a detail not shown here. Equal values may be shown once. Toxic doses and inconclusive results are not listed. No stated cut-off is given here; in the data, active means T/C of 150% or more; inactive means T/C below 125%.

Tested on: L1210 leukemia ip in BDF1 mice, survival T/C
Assay: NCI In Vivo Anticancer Drug Screen. Data for tumor model L1210 Leukemia (intraperitoneal) in B6D2F1 (BDF1) mice
Settings: endpoint: mean survival time, higher = longer survival
Outline: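 Read-out is survival time, reported as the treated-group measurement over the vehicle-control measurement.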

[1] = dose: 100.0 mg/kg/injection, schedule: Q01DX001 (ip), vehicle: saline
[2] = dose: 200.0 mg/kg/injection, schedule: Q01DX001 (ip), vehicle: saline
[3] = dose: 400.0 mg/kg/injection, schedule: Q01DX001 (ip), vehicle: saline
[4] = dose: 100.0 mg/kg/injection, schedule: Q04DX002 (ip), vehicle: Klucel (hydroxypropylcellulose) (HPC)
[5] = dose: 25.0 mg/kg/injection, schedule: Q01DX009 (ip), vehicle: Klucel (hydroxypropylcellulose) (HPC)
[6] = dose: 25.0 mg/kg/injection, schedule: Q04DX003 (ip), vehicle: Klucel (hydroxypropylcellulose) (HPC)
[7] = dose: 50.0 mg/kg/injection, schedule: Q04DX003 (ip), vehicle: Klucel (hydroxypropylcellulose) (HPC)
[8] = dose: 100.0 mg/kg/injection, schedule: Q01DX009 (ip), vehicle: Klucel (hydroxypropylcellulose) (HPC)
[9] = dose: 100.0 mg/kg/injection, schedule: Q04DX003 (ip), vehicle: Klucel (hydroxypropylcellulose) (HPC)
[10] = dose: 200.0 mg/kg/injection, schedule: Q04DX003 (ip), vehicle: Klucel (hydroxypropylcellulose) (HPC)
[11] = dose: 12.5 mg/kg/injection, schedule: Q01DX009 (ip), vehicle: Klucel (hydroxypropylcellulose) (HPC)
[12] = dose: 50.0 mg/kg/injection, schedule: Q01DX001 (ip), vehicle: saline
[13] = dose: 100.0 mg/kg/injection, schedule: Q01DX009 (ip), vehicle: saline with Tween-80
[14] = dose: 200.0 mg/kg/injection, schedule: Q01DX009 (ip), vehicle: Klucel (hydroxypropylcellulose) (HPC)
[15] = dose: 400.0 mg/kg/injection, schedule: Q01DX009 (ip), vehicle: Klucel (hydroxypropylcellulose) (HPC)
[16] = dose: 200.0 mg/kg/injection, schedule: Q04DX002 (ip), vehicle: Klucel (hydroxypropylcellulose) (HPC)
[17] = dose: 400.0 mg/kg/injection, schedule: Q04DX002 (ip), vehicle: Klucel (hydroxypropylcellulose) (HPC)

Measured: T/C

CCC(CC)c1ccc2ccccc2c1
inactive: [1] 100 % of control | [2] 98 % of control | [3] 101 % of control

O=S(=O)(O)Nc1ccc(Cl)cc1
inactive: dose: 25.0 mg/kg/injection, schedule: Q04DX002 (ip), vehicle: Klucel (hydroxypropylcellulose) (HPC) 102 % of control | dose: 50.0 mg/kg/injection, schedule: Q04DX002 (ip), vehicle: Klucel (hydroxypropylcellulose) (HPC) 102 % of control | [4] 102 % of control

N#Cc1cnc(N)cc1N
inactive: [5] 96 % of control | [6] 97 % of control | dose: 50.0 mg/kg/injection, schedule: Q01DX009 (ip), vehicle: Klucel (hydroxypropylcellulose) (HPC) 98 % of control | [7] 100 % of control | [8] 104 % of control | [9] 101 % of control and 104 % of control | [10] 113 % of control

O=C(O)c1cc2cc(Cl)ccc2oc1=O
inactive: dose: 100.0 mg/kg/injection, schedule: Q01DX001 (ip), vehicle: carboxymethylcellulose (CMC) 92 % of control | dose: 200.0 mg/kg/injection, schedule: Q01DX001 (ip), vehicle: carboxymethylcellulose (CMC) 92 % of control

Cc1ccc(S(=O)(=O)c2ccc(S(=O)(=O)c3ccccc3)cc2)cc1
inactive: [1] 95 % of control and 92 % of control | [2] 97 % of control | [3] 105 % of control and 91 % of control

CCCCCCC[As](=O)(O)O
inactive: dose: 6.25 mg/kg/injection, schedule: Q01DX009 (ip), vehicle: Klucel (hydroxypropylcellulose) (HPC) 99 % of control | [11] 101 % of control

Nc1nc(N)c(CCCOc2ccc(NC(=O)CCCc3ccc(NC(=O)CBr)cc3)cc2)c(N)n1
inactive: [9] 102 % of control | [10] 109 % of control | dose: 400.0 mg/kg/injection, schedule: Q04DX003 (ip), vehicle: Klucel (hydroxypropylcellulose) (HPC) 102 % of control

O=[N+]([O-])c1cccc2cccnc12
inactive: [12] 107 % of control | dose: 50.0 mg/kg/injection, schedule: Q01DX009 (ip), vehicle: saline with Tween-80 95 % of control | [1] 107 % of control | [13] 93 % of control

Cc1cc(C(=O)O)c(C(=O)O)c(=O)[nH]1
inactive: dose: 75.0 mg/kg/injection, schedule: Q01DX001 (ip), vehicle: other 111 % of control | dose: 150.0 mg/kg/injection, schedule: Q01DX001 (ip), vehicle: other 104 % of control | dose: 300.0 mg/kg/injection, schedule: Q01DX001 (ip), vehicle: other 102 % of control

CC(=O)COc1cccc(Cl)c1Cl
inactive: [13] 98 % of control | dose: 200.0 mg/kg/injection, schedule: Q01DX009 (ip), vehicle: saline with Tween-80 95 % of control | dose: 400.0 mg/kg/injection, schedule: Q01DX009 (ip), vehicle: saline with Tween-80 101 % of control

CC(C)(C)NC(=O)Nc1ccc2ccccc2c1
inactive: dose: 100.0 mg/kg/injection, schedule: Q01DX009 (ip), vehicle: other 93 % of control | dose: 200.0 mg/kg/injection, schedule: Q01DX009 (ip), vehicle: other 89 % of control | dose: 400.0 mg/kg/injection, schedule: Q01DX009 (ip), vehicle: other 94 % of control

CS(=O)(=O)n1c(CCl)nc2ccccc21
inactive: [12] 96 % of control | [1] 104 % of control | [2] 102 % of control | [3] 102 % of control

C=C(C)C1Cc2c(ccc3c(=O)c4c(oc23)COc2cc(OC)c(OC)cc2-4)O1 (stereo not given)
inactive: [8] 90 % of control | [14] 93 % of control | [15] 95 % of control

C[N+]12CCCc3cc(CO)cc(c31)CCC2
inactive: [11] 101 % of control | dose: 12.5 mg/kg/injection, schedule: Q04DX003 (ip), vehicle: Klucel (hydroxypropylcellulose) (HPC) 97 % of control | [5] 105 % of control | [6] 92 % of control | [7] 97 % of control

Cc1nc(-c2ccccc2)no1
inactive: dose: 75.0 mg/kg/injection, schedule: Q01DX009 (ip), vehicle: Klucel (hydroxypropylcellulose) (HPC) 102 % of control | [4] 97 % of control | dose: 150.0 mg/kg/injection, schedule: Q01DX009 (ip), vehicle: Klucel (hydroxypropylcellulose) (HPC) 98 % of control | [16] 102 % of control | dose: 300.0 mg/kg/injection, schedule: Q01DX009 (ip), vehicle: Klucel (hydroxypropylcellulose) (HPC) 101 % of control | [17] 97 % of control

OC/C=C\C1(O)CCCCC1
inactive: dose: 75.0 mg/kg/injection, schedule: Q01DX001 (ip), vehicle: saline 98 % of control | dose: 150.0 mg/kg/injection, schedule: Q01DX001 (ip), vehicle: saline 96 % of control

Nc1nc(=S)c2ncn(C3OCC(O)C(O)C3O)c2[nH]1 (stereo not given)
inactive: dose: 5.0 mg/kg/injection, schedule: Q01DX001 (ip), vehicle: saline 101 % of control | dose: 10.0 mg/kg/injection, schedule: Q01DX001 (ip), vehicle: saline 95 % of control | dose: 12.5 mg/kg/injection, schedule: Q01DX009 (ip), vehicle: saline 98 % of control | dose: 20.0 mg/kg/injection, schedule: Q01DX001 (ip), vehicle: saline 96 % of control | dose: 25.0 mg/kg/injection, schedule: Q01DX009 (ip), vehicle: saline 97 % of control | dose: 40.0 mg/kg/injection, schedule: Q01DX001 (ip), vehicle: saline 101 % of control | dose: 50.0 mg/kg/injection, schedule: Q01DX009 (ip), vehicle: saline 98 % of control | dose: 80.0 mg/kg/injection, schedule: Q01DX001 (ip), vehicle: saline 96 % of control | [1] 98 % of control | dose: 100.0 mg/kg/injection, schedule: Q01DX009 (ip), vehicle: saline 101 % of control | [2] 102 % of control | [3] 102 % of control

Cc1cc(Cl)cc2sc(=S)[nH]c12
inactive: [8] 96 % of control and 108 % of control | [4] 110 % of control | [14] 86 % of control and 92 % of control | [16] 110 % of control | [15] 87 % of control | [17] 110 % of control

Nc1ccccc1CSc1nc2nc[nH]c2c(=O)[nH]1
inactive: dose: 5.0 mg/kg/injection, schedule: Q01DX009 (ip), vehicle: Klucel (hydroxypropylcellulose) (HPC) 99 % of control | dose: 10.0 mg/kg/injection, schedule: Q01DX009 (ip), vehicle: Klucel (hydroxypropylcellulose) (HPC) 97 % of control | dose: 20.0 mg/kg/injection, schedule: Q01DX009 (ip), vehicle: Klucel (hydroxypropylcellulose) (HPC) 103 % of control

CC1(C)C(=NNC(N)=O)C(C)(C)C1=NNC(N)=O
inactive: [1] 96 % of control | [9] 91 % of control | [2] 94 % of control | [3] 90 % of control

CCC1C(CC)N1S(=O)(=O)c1ccccc1 (stereo not given)
inactive: dose: 100.0 mg/kg/injection, schedule: Q04DX002 (ip), vehicle: saline with Tween-80 100 % of control | dose: 200.0 mg/kg/injection, schedule: Q04DX002 (ip), vehicle: saline with Tween-80 103 % of control

Cc1cc(=O)c2cc(N)ccc2[nH]1
inactive: dose: 100.0 mg/kg/injection, schedule: Q01DX009 (ip), vehicle: water 98 % of control | dose: 100.0 mg/kg/injection, schedule: Q04DX003 (ip), vehicle: water 107 % of control | dose: 200.0 mg/kg/injection, schedule: Q01DX009 (ip), vehicle: water 98 % of control | dose: 200.0 mg/kg/injection, schedule: Q04DX003 (ip), vehicle: water 113 % of control | dose: 400.0 mg/kg/injection, schedule: Q01DX009 (ip), vehicle: water 94 % of control | dose: 400.0 mg/kg/injection, schedule: Q04DX003 (ip), vehicle: water 116 % of control

CCCN(CCC)c1ccc(N=Nc2cc(Cl)ccc2Cl)cc1
inactive: dose: 100.0 mg/kg/injection, schedule: Q04DX003 (ip), vehicle: saline with Tween-80 91 % of control | dose: 200.0 mg/kg/injection, schedule: Q04DX003 (ip), vehicle: saline with Tween-80 93 % of control | dose: 400.0 mg/kg/injection, schedule: Q04DX003 (ip), vehicle: saline with Tween-80 91 % of control

CCOc1ccc(N=Nc2c(O)n(-c3ccccc3OC)c(=S)n(-c3ccccc3OC)c2=O)cc1
inactive: dose: 75.0 mg/kg/injection, schedule: Q01DX003 (ip), vehicle: Klucel (hydroxypropylcellulose) (HPC) 96 % of control | dose: 100.0 mg/kg/injection, schedule: Q01DX003 (ip), vehicle: Klucel (hydroxypropylcellulose) (HPC) 96 % of control | dose: 200.0 mg/kg/injection, schedule: Q01DX003 (ip), vehicle: Klucel (hydroxypropylcellulose) (HPC) 91 % of control
